Results on 2 compounds are retold here after EPA's ToxValDB 9.5 (doi:10.2903/j.efsa.2016.4452).

In general, NOAEL refers to the highest dose or exposure tested at which no adverse effect was seen. In general, LOAEL refers to the lowest dose or exposure tested at which an adverse effect was seen.

For data set [1], the system named is Aphidius rhopalosiphi. Kind of data set: LR50; higher = less toxic. The following applies: not reported; mortality.
For data set [2], the system named is Daphnia magna. The conditions noted are these: chronic/long-term; duration: 21 days; reproduction.
The subject of data set [3] is Oryctolagus sp. The following applies: reproduction developmental; no effects.
Data set [4] deals with Colinus virginianus. The following applies: acute, oral, diet, mortality.
The test system of data set [5] is Apis mellifera. The following applies: acute, mortality.
Data set [6] relates to Canidae. The conditions noted are these: chronic; duration: 1 years; oral; Dog Other; organ weight.
In data set [7] the test system is Bibionidae. The conditions noted are these: chronic/long-term; duration: 28 days; reproduction.
Data set [8] deals with Tagia sp.
Data set [9] deals with Folsomia candida. The following applies: chronic/long-term; duration: 28 days.
Data set [10] relates to Rattus norvegicus.
Data set [11] concerns Pimephales promelas. The conditions noted are these: chronic/long-term; duration: 28 days; reproduction.
Data set [12] concerns Lepomis macrochirus. The following applies: acute; duration: 96 hours; mortality.
For data set [13], the system named is Anas platyrhynchos. The following applies: reproductive; duration: 20 weeks; oral; feed; M.

`CC(NC(=O)c1cc(Cl)cc(Br)c1NC(=O)c1cc(Br)nn1-c1ncccc1Cl)C1CC1` (stereo not drawn) [Cyclaniliprole] yielded an LR50 in [1] of 0.507 g/ha. Moreover, the NOEC was determined as 0.015 mg/L in [2]; 0.061 mg/kg in data set [7]; 500 mg/kg in data set [8] (chronic/long-term, duration: 56 days); 1.25 mg/kg in data set [9]; 0.2 mg/L in data set [11]. Further, the NOAEL in data set [3] amounted to 1000 mg/kg-day; in data set [10] (reproduction developmental, no effects), 1000 mg/kg-day; in [13], 2.7 mg/kg-day. Besides, the LD50 in data set [4] (duration: 8 days) was over 1000 mg/kg-day; in [4] (duration: 14 days), over 2000 mg/kg-day; in data set [5] (dermal), 0.486 µg/piece; in data set [5] (oral, unspecified), 0.194 µg/piece; in [10] (acute, oral, mortality), over 2000 mg/kg-day. In addition, in [6], the LOAEL amounted to 1.29 mg/kg-day. Also, the LC50 was over 500 mg/kg in data set [8] (acute, duration: 14 days, mortality) and over 0.15 µg/mL in data set [12].
Take `O=c1[nH]c(-c2cc(Br)nn2-c2ncccc2Cl)nc2c(Br)cc(Cl)cc12` [Cyclaniliprole metabolite (NSY-28)]: the lowest-observed-adverse-effect level (LOAEL) in data set [6] stood at 1.29 mg/kg-day.
